# In patent US10266482B2, “Long-term memory inducing agent” (NATIONAL UNIVERSITY CORPORATION TOKYO MEDICAL AND DENTAL …, priority 2017, dated 2019):
# Legend:
# aged mice = assay: Object recognition test (ORT) with aged mice; type: in vivo, ICR mice; details: for long-term memory formation (DI value, test trial 24 hours later): aged (14-month-old) mice
# Description: 2-month-old male ICR mice (young mice) and 14-month-old male ICR mice (aged mice) were used. The rearing room was kept at 22° C. at cycles of 12 hours of light period/12 hours of dark period, and feed and drinking water were given freely. All of the experiments were conducted during the latter 6 hours of the light period.
# N(1)-acetyl-5-methoxykynuramine (AMK) was used as a drug. AMK was diluted with physiological saline for the administration experiment with the aged mouse, and a dosage of 0.1 mg/kg bw or 1 mg/kg bw was intraperitoneally administered.
# For an object recognition test, two each of two types of objects (height 6 cm×diameter 4 cm, height 7 cm×diameter 7 cm) and an observation box (height 30 cm×width 40 cm×depth 30 cm) were used. This test consisted of an acquisition trial and a test trial, and the experimental individuals were allowed to explore in the observation box 5 minutes a day for 3 days immediately before the experiment in order to adapt the experimental individuals to the observation box. In the acquisition trial, two identical objects were presented to the observation box and the experimental individuals were allowed to search for a minute. When the acquisition trials were conducted for more than one time, the acquisition trials were conducted at one-hour intervals. The test trial was conducted 24 hours or 4 days after the last acquisition trial. In the test trials, one of the two identical objects presented in the acquisition trials was exchanged with a different object (new object), and the experimental individuals were allowed to search for 5 minutes. During the test trials, the time that took each of the mice to search for the object was measured, and the ratio of the searching time of the two objects (DI value: discrimination index) was calculated according to the following formula to examine the relative cognitive levels to the new object. DI value (%)=Tn×100/(Tf+Tn)
# One-sample t-test was employed to compare the DI value with the expected value (50%).
# [1] = Measurement of brain AMK level after intraperitoneal administration; type: in vivo, ICR mice; details: 1 mg/kg bw intraperitoneal
# Description: 8-week-old male ICR mice were purchased. Each of the experiment individuals was raised in an individual cage, and adapted to the raising environment for at least a week before use. The rearing room was kept at 22° C. at cycles of 12 hours of light period/12 hours of dark period, and feed and drinking water were given freely. All of the experiments were conducted during the latter 6 hours of the light period.
# N(1)-acetyl-5-methoxykynuramine (AMK) was used as a drug. AMK was diluted with physiological saline. In the administration experiment, a dosage of 0.001 mg-1 mg/3.65 ml/kg bw was intraperitoneally administered.
# 1 mg/kg bw of AMK was intraperitoneally administered, and 5, 15, 30, 60, 120 and 240 minutes later, the hippocampus and a region including the perirhinal cortex of the temporal lobe that was assumed to be involved in object recognition memory were collected to measure the AMK levels with a high-performance liquid chromatograph mass spectrometer. As a control group, AMK levels in untreated individuals were also measured
# young mice = assay: Object recognition test for young mice (melatonin and melatonin metabolites); type: in vivo, ICR mice; details: i.p. 60 minutes after one one-minute acquisition trial, test trial 24 hours later
# Description: Two-month-old male ICR mice (young mice) were used. The rearing room was kept at 22° C. at cycles of 12 hours of light period/12 hours of dark period, and feed and drinking water were given freely. All of the experiments were conducted during the latter 6 hours of the light period.
# Melatonin (MEL), N(1)-acetyl-N(2)-formyl-5-methoxykynuramine (AFMK), and N(1)-acetyl-5-methoxykynuramine (AMK) were used as drugs. Melatonin was purchased from SIGMA Aldrich, AFMK was purchased from Cayman Chemical, and AMK was purchased from Toronto Research Chemicals. AFMK and AMK were diluted with physiological saline and intraperitoneally administered at a dosage of 0.01 mg/kg bw, 0.1 mg/kg bw or 1.0 mg/kg bw. MEL was diluted with physiological saline containing 1 vol % ethanol, and intraperitoneally administered at a dosage of 1.0 mg/kg bw or 5.0 mg/kg bw. As controls, physiological saline or physiological saline containing 1 vol % ethanol was intraperitoneally administered.
# Test was conducted in the same manner as “5.3 Object recognition test” in Example 5.
# Processing was conducted in the same manner as “5.4 Statistical processing” in Example 5.
# aged crickets = assay: Olfactory associative learning test in aged crickets (age-related memory disorder, training four times); type: in vivo, Gryllus bimaculatus; details: 1 μM, 3 μl
# Description: Male crickets about one week old (young) or three week old (aged) following molting into adult forms were used. Each of the crickets was placed into a 100 ml beaker three days before the experiment, and deprived of water for 2-3 days to enhance the desire of taking water. As the feed, about 10 pieces of insect feed were placed into the beaker. A 1-ml syringe was used for smell and reward associative conditioning upon learning/training. The syringe contained water as the reward while a piece of paper (3 mm×3 mm) perfumed with peppermint essence was pierced into the needle to about 1 cm from the tip thereof. In this learning/training, the filter paper on the needle was brought near the antennae of the cricket to allow it to smell for 3 seconds and then a drop of water was put out from the tip of the needle and applied to the mouth of the cricket. When the associative conditioning was conducted for four times, the conditionings were conducted at intervals of 5 minutes. Smell preference was examined by placing each cricket into a test arena. The arena consisted of a “standby chamber” and a “test chamber”. […] The smell source was a plastic pot containing filter paper perfumed with essence of a smell (peppermint or vanilla) and covered with a gauze lid. In the preference test, each cricket was placed into the test chamber and allowed to walk freely for 4 minutes to search for the two smell sources. Two minutes after the start of the test, a rotary board having the smell sources was rotated to reverse the positions of the vanilla and the peppermint smells. During the test, the time the cricket spent placing its mouth to the gauze of the smell source was measured as a visiting time to the smell source, and the ratio of the visiting times of the two types of smells (PI value: preference index) was calculated according to the following formula to assess the relative preference to the mint smell. PI value=Tp/(Tp+Tv)×100 • Tp: Searching time for smell associated with the reward (peppermint) • Tv: Searching time for smell not associated with the reward (vanilla) If the preferences for the two smells are equivalent, PI will be 50. Since crickets inherently prefer vanilla smell over peppermint smell, an average PI value prior to the learning/training is usually 25-35, The preference test was conducted before and after the learning/training to examine whether preference for the smell changes due to the learning/training. […] Melatonin, 6-HM, kynurenine, kynuramine and 8br-cGMP were purchased from SIGMA Aldrich, AFMK was purchased from Cayman Chemical, AMK was purchased from Toronto Research Chemicals and CHX was purchased from Wako Pure Chemical Industries. The drugs other than 8br-cGMP and CHX were first dissolved in ethanol and then diluted with physiological saline for crickets to the respective concentrations. In the administration experiment, 3 μl was administered using a 10-μl syringe to the brain via an aperture opened through a simple eye of the head. PI values were tested before the training and a day after the training in the same group by a Wilcoxon's-test.
compound,measurement,setting,value
"COc1ccc(N)c(C(=O)CCNC(C)=O)c1 [Compound 1, N-[3-(2-amino-5-methoxyphenyl)-3-oxopropyl]-acetamide]","long-term memory formation (DI value, test trial 24 hours later)",aged mice; 0.1 mg/kg bw i.p. 15 minutes after two one-minute acquisition trials,a long-term memory was formed
same,"long-term memory formation (DI value, test trial 24 hours later)",aged mice; 1 mg/kg bw i.p. 15 minutes after one one-minute acquisition trial,a long-term memory was formed
same,duration of induced long-term memory,"aged mice; aged mice, 1 mg/kg bw i.p. 15 minutes after one acquisition trial, test trials 1 and 4 days later",at least 4 days
same,crossing of the blood-brain barrier,[1],cross the blood-brain barrier
same,time to reach and act in the brain following intraperitoneal administration,[1],about 5 minutes
same,AMK concentration in hippocampus and perirhinal cortex as compared to the control group,"[1]; within 5 minutes, thereafter decreased with time",significantly increased
same,concentration at which the effect of inducing long-term memories was found,young mice,0.1 mg/kg bw
same,improvement in an age-related memory disorder,aged crickets; 20 minutes after training for four times,improvement in an age-related memory disorder was observed
same,long-term memory formation a day after the training (improvement of age-related memory disorder),aged crickets; 20 minutes before training for four times,a long-term memory was formed
